Consider four compounds from patent US11465972B2, “Inhibitors of oxidized low-density lipoprotein receptor 1 and methods of use thereof” (United States Government as represented by the Department …, priority 2015, dated 2022).

Test [1] concerns macrophages. Conditions: cited from earlier work.
In test [2] the test system is human primary aortic endothelial cells. Nature of the test: ox-LDL uptake by human primary aortic endothelial cells (flow cytometry). The test is classed as cell-based. Conditions: Endothelial cell, 0, 5, 50, 100, 250, 500 nM. On the procedure:
FIG. 7A depicts flow cytometry measurements using human primary aortic endothelial cells in the presence of 0, 5, 50 100, 250 and […] of Formula XVI. FIG. 7B depicts the percentage of internalized ox-LDL. The x-axis represents Formula XVI concentration (nM) and the y-axis represents ox-LDL uptake by ECs.
Ox-LDL uptake by human primary aortic endothelial cells was measured after exposure to 0, 5, 50, 100, 250 and 500 nM of the compound of Formula XVI (compound 13 in Table 3) using flow cytometry.
(In flow cytometry, cells or beads pass a laser one at a time.)

The test system of test [3] is LOX-1 expression. Conditions: cited from earlier work.
Test [4] deals with CHO cells expressing LOX-1 (Homo sapiens, UniProt P78380). The following applies: only at high concentrations; cited from earlier work.

Regarding `CCCCCCCCCCCCCCCCCC(=O)Nc1ccc(S(=O)(=O)O)c(NC(=O)CCCCCCCCCCCCCCCCC)c1` [2,4-bis(octadecanoylamino) benzenesulfonic acid], the “LDL binding to macrophages” value in test [1] is given as “prevented LDL from binding to macrophages”.

As for `OC(COc1ccccc1)Cn1ccnc1I` (stereo not shown) [Formula XVI], the IC50 (usually the concentration that inhibits the measured activity by half) in test [2] is 26.7 nM.

In the case of `CC(=O)Oc1ccccc1C(=O)O` [aspirin], the “ox-LDL mediated LOX-1 expression” value in test [3] was “reduce ox-LDL mediated LOX-1 expression”.

For the compound procyanidins, in test [4], the “ox-LDL uptake in CHO cells expressing LOX-1” value is “inhibited ox-LDL uptake”.
